Reference: ChEMBL document CHEMBL4483862, “Open-source discovery of chemical leads for next-generation chemoprotective antimalarials” (2018)

Tested on: Plasmodium berghei
Test: Luciferase/luciferin-expressing antifolate-resistant parasites were used to infect a culture of HepG2 cells that were pre-incubated with compounds. Infected hepatocytes emit light due to the luciferase reaction. Assay results are presented as the percent inhibition of light emission compared to control. […]
Assay type: functional
Conditions: sporozoite; for IC90: read-out: LUCIFERASE INFECTION ASSAY - IC90
[1] = read-out: LUCIFERASE INFECTION ASSAY - IC50

Row | SMILES | IC90 | further results
1 | CCn1c(=O)c(C)nc2cc(C(=O)Nc3ccc(C(C)(C)C)cc3)ccc21 | 1.74 µM | IC50 (HEPG2TOX_HILL_SLOPE 2.17, HEPG2TOX_R_SQUARED 0.922, PBLUC_HILL_SLOPE 3.75, PBLUC_R_SQUARED 0.489, read-out: LUCIFERASE INFECTION ASSAY - IC50): 0.966 µM
2 | CSc1sc(C(=O)NNC(=O)Nc2ccccc2)c2c1C=CCC2 | > 9.18 µM | IC50 (FFLUC_HILL_SLOPE 1.34, FFLUC_R_SQUARED 0.714, read-out: LUCIFERASE INFECTION ASSAY - IC50): > 9.18 µM
3 | NC1=NC(=S)N=C(N)C1=C(CS(=O)(=O)c1ccccc1)c1ccccc1 | > 8.58 µM | IC50 (PBLUC_HILL_SLOPE 1.77, PBLUC_R_SQUARED 0.148, read-out: LUCIFERASE INFECTION ASSAY - IC50): > 8.58 µM
4 | COC(=O)c1sccc1Oc1ccc(C(F)(F)F)cc1NS(=O)(=O)c1cc(C(F)(F)F)cc(C(F)(F)F)c1 | 3.04 µM | IC50 (HEPG2TOX_HILL_SLOPE 17.5, HEPG2TOX_R_SQUARED 0.823, PBLUC_HILL_SLOPE 4.85, PBLUC_R_SQUARED 0.307, read-out: LUCIFERASE INFECTION ASSAY - IC50): 1.93 µM
5 | CCCn1c(NC(=O)c2cc(-c3cccs3)nc3ccccc23)nc2ccccc21 | > 10 µM | IC50 (PBLUC_HILL_SLOPE 14.7, PBLUC_R_SQUARED 0.767, read-out: LUCIFERASE INFECTION ASSAY - IC50): 9.26 µM
6 | Cc1ccc(Nc2nc(C(F)(F)F)nc3ccccc23)cc1S(=O)(=O)N(C)C | > 10 µM | IC50 [1]: > 10 µM
7 | Cc1ccc(C2=NN(C(=O)c3ccccc3)C(c3ccccc3O)C2)cc1 (stereo not drawn) | 8.37 µM | IC50 (FFLUC_HILL_SLOPE 4.22, FFLUC_R_SQUARED 0.285, HEPG2TOX_HILL_SLOPE 3.02, HEPG2TOX_R_SQUARED 0.969, PBLUC_HILL_SLOPE 1.84, PBLUC_R_SQUARED 0.813, read-out: LUCIFERASE INFECTION ASSAY - IC50): 2.54 µM
8 | O=C(Nc1ccc(SC(F)(F)F)cc1)N1CCN(c2nc(-c3ccccc3)ns2)CC1 | > 7.09 µM | IC50 (HEPG2TOX_HILL_SLOPE 7.08, HEPG2TOX_R_SQUARED 0.48, PBLUC_HILL_SLOPE 1.8, PBLUC_R_SQUARED 0.469, read-out: LUCIFERASE INFECTION ASSAY - IC50): 3.31 µM
9 | COc1cccc(-c2cn3c(-c4ccc(C(=O)NC5CC5)cc4)cnc3cn2)c1F | 7.93 µM | IC50 (PBLUC_HILL_SLOPE 10.9, PBLUC_R_SQUARED 0.72, read-out: LUCIFERASE INFECTION ASSAY - IC50): 6.48 µM
10 | O=[N+]([O-])c1cc(/C=N/O)ccc1Oc1ccc(Cl)cc1 | > 11.3 µM | IC50 (PBLUC_HILL_SLOPE 1.72, PBLUC_R_SQUARED 0.416, read-out: LUCIFERASE INFECTION ASSAY - IC50): 6.18 µM
11 | COc1ccc(OCC(O)CNCC23CC4CC(CC(C4)C2)C3)c(C(C)(C)C)c1 (stereo not drawn) | 9.84 µM | IC50 (PBLUC_HILL_SLOPE 14.7, PBLUC_R_SQUARED 0.42, read-out: LUCIFERASE INFECTION ASSAY - IC50): 8.48 µM
12 | CCn1c(-c2ccccc2)c(C(=O)Cn2ncc(Cl)c(Cl)c2=O)c2ccccc21 | > 10 µM | IC50 (FFLUC_HILL_SLOPE 22, FFLUC_R_SQUARED 0.674, read-out: LUCIFERASE INFECTION ASSAY - IC50): > 10 µM
13 | COCCNC(=O)c1nn(CCC(C)C)c2c1CN(C(=O)c1cc(C)n[nH]1)CC2 | 3.47 µM | IC50 (PBLUC_HILL_SLOPE 11.6, PBLUC_R_SQUARED 0.412, read-out: LUCIFERASE INFECTION ASSAY - IC50): 2.87 µM
14 | Cc1cc[n+](CC(=O)Nc2ccc(OC(F)F)cc2)c2ccccc12 | 1.27 µM | IC50 (HEPG2TOX_HILL_SLOPE 2.14, HEPG2TOX_R_SQUARED 0.242, PBLUC_HILL_SLOPE 15.8, PBLUC_R_SQUARED 0.258, read-out: LUCIFERASE INFECTION ASSAY - IC50): 1.1 µM
15 | COc1ccc2c(-c3ccccc3)cc(SCC(=O)Nc3sccc3C(N)=O)nc2c1 | 9.16 µM | IC50 [1]: 7.85 µM
16 | O=C(CSc1nc2ccccc2c(=O)n1-c1ccccc1F)N1CCSC1c1ccccc1F (stereo not drawn) | > 10 µM | IC50 [1]: > 10 µM
17 | CN(C)c1ccc(CNc2nccc3nc(-c4ccc(F)c(F)c4)[nH]c23)cc1 | 9.24 µM | IC50 (HEPG2TOX_HILL_SLOPE 2.98, HEPG2TOX_R_SQUARED 0.951, PBLUC_HILL_SLOPE 0.962, PBLUC_R_SQUARED 0.864, read-out: LUCIFERASE INFECTION ASSAY - IC50): 0.941 µM
18 | OCc1cccc(-c2cnc3cnc(-c4ccccc4Oc4ccccc4)cn23)c1 | > 8.39 µM | IC50 [1]: > 8.39 µM
19 | O=C(/C(Br)=C/c1ccc([N+](=O)[O-])cc1)c1ccccc1 | > 10 µM | IC50 (HEPG2TOX_HILL_SLOPE 17, HEPG2TOX_R_SQUARED 0.837, PBLUC_HILL_SLOPE 13.5, PBLUC_R_SQUARED 0.0643, read-out: LUCIFERASE INFECTION ASSAY - IC50): 9.16 µM
20 | CCCCCn1c(Sc2ncc([N+](=O)[O-])s2)n[nH]c1=O | > 10.5 µM | IC50 (HEPG2TOX_HILL_SLOPE 11.8, HEPG2TOX_R_SQUARED 0.641, PBLUC_HILL_SLOPE 4, PBLUC_R_SQUARED 0.202, read-out: LUCIFERASE INFECTION ASSAY - IC50): 7 µM

Row | SMILES | IC90 | further results
21 | Cc1ccc(CN2C(=O)C(O)(c3c[nH]c4ccccc34)c3ccccc32)c(C)c1 (stereo not drawn) | 6.05 µM | IC50 (FFLUC_HILL_SLOPE 13.6, FFLUC_R_SQUARED 0.607, PBLUC_HILL_SLOPE 3.72, PBLUC_R_SQUARED 0.631, read-out: LUCIFERASE INFECTION ASSAY - IC50): 3.35 µM
22 | COC(=O)c1cc2ccccc2cc1OC(=O)COc1ccc(C#N)cc1 | > 10 µM | IC50 [1]: > 10 µM
23 | CCCc1cc(=O)n(-c2ccc(Cl)cc2)[nH]1 | 5.8 µM | IC50 (FFLUC_HILL_SLOPE 16.5, FFLUC_R_SQUARED 0.266, HEPG2TOX_HILL_SLOPE 6.52, HEPG2TOX_R_SQUARED 0.85, PBLUC_HILL_SLOPE 14.3, PBLUC_R_SQUARED 0.712, read-out: LUCIFERASE INFECTION ASSAY - IC50): 4.97 µM
24 | CN(C)c1ccc(C2CNC(c3ccc(Cl)c([N+](=O)[O-])c3)c3[nH]c4ccccc4c32)cc1 (stereo not drawn) | > 10 µM | IC50 (PBLUC_HILL_SLOPE 1.52, PBLUC_R_SQUARED 0.0896, read-out: LUCIFERASE INFECTION ASSAY - IC50): > 10 µM
25 | CCc1sc(C(=O)NNC(=O)CN2CCN(c3ccc([N+](=O)[O-])cc3)CC2)cc1C | > 10 µM | IC50 [1]: > 10 µM
26 | Cc1ccc(CSc2nc3c(c(-c4cccs4)c2C#N)CCCC3)cc1 | > 8.76 µM | IC50 (FFLUC_HILL_SLOPE 8.93, FFLUC_R_SQUARED 0.64, PBLUC_HILL_SLOPE 2.69, PBLUC_R_SQUARED 0.339, read-out: LUCIFERASE INFECTION ASSAY - IC50): 6.13 µM
27 | Cn1cc(-c2cc(-c3cccc4ccccc34)cnc2N)cn1 | > 11 µM | IC50 (PBLUC_HILL_SLOPE 11.1, PBLUC_R_SQUARED 0.24, read-out: LUCIFERASE INFECTION ASSAY - IC50): 10.4 µM
28 | CC(NC(=O)Nc1ccc(C#N)c(Cl)c1)c1cccs1 (stereo not drawn) | > 10 µM | IC50 [1]: > 10 µM
29 | CCn1nnnc1Sc1ncnc2scc(-c3ccc(C)cc3)c12 | > 10 µM | IC50 [1]: > 10 µM
30 | Cc1nc2c3ccccc3nc(SCC(=O)Nc3ccccc3)n2n1 | 1.43 µM | IC50 (HEPG2TOX_HILL_SLOPE 1.21, HEPG2TOX_R_SQUARED 0.956, PBLUC_HILL_SLOPE 1.03, PBLUC_R_SQUARED 0.933, read-out: LUCIFERASE INFECTION ASSAY - IC50): 0.169 µM
31 | N#Cc1c(N2CCCC2)nn(C(=O)Nc2ccc(Cl)c(Cl)c2)c1N | 3.89 µM | IC50 (PBLUC_HILL_SLOPE 16.1, PBLUC_R_SQUARED 0.491, read-out: LUCIFERASE INFECTION ASSAY - IC50): 3.39 µM
32 | Cc1ccccc1-c1cn2c(-c3ccc(CO)cc3)cnc2cn1 | 10.4 µM | IC50 (HEPG2TOX_HILL_SLOPE 0.675, HEPG2TOX_R_SQUARED 0.753, PBLUC_HILL_SLOPE 1.37, PBLUC_R_SQUARED 0.689, read-out: LUCIFERASE INFECTION ASSAY - IC50): 2.1 µM
33 | COc1ccc(C(=O)/C=C/c2cc(Br)c(OCC(=O)N(C)C)c(OC)c2)c(OC)c1 | 4.46 µM | IC50 (HEPG2TOX_HILL_SLOPE 1.45, HEPG2TOX_R_SQUARED 0.95, PBLUC_HILL_SLOPE 1.66, PBLUC_R_SQUARED 0.857, read-out: LUCIFERASE INFECTION ASSAY - IC50): 1.19 µM
34 | Nc1nccnc1C(=O)Nc1ccc(C23CC4CC(CC(C4)C2)C3)cc1 | 9.45 µM | IC50 (FFLUC_HILL_SLOPE 1.35, FFLUC_R_SQUARED 0.9, PBLUC_HILL_SLOPE 1.78, PBLUC_R_SQUARED 0.606, read-out: LUCIFERASE INFECTION ASSAY - IC50): 2.75 µM
35 | CC1CCN(Cc2nc(SC3CCCC3)c3c4c(sc3n2)CCC4)CC1 | > 10 µM | IC50 (PBLUC_HILL_SLOPE 9.85, PBLUC_R_SQUARED 0.167, read-out: LUCIFERASE INFECTION ASSAY - IC50): 9.59 µM
36 | O=C(NC1CC1)c1ccc(CN(Cc2csc(-c3ccsc3)n2)Cc2ccco2)cc1 | 1.57 µM | IC50 (PBLUC_HILL_SLOPE 18.2, PBLUC_R_SQUARED 0.577, read-out: LUCIFERASE INFECTION ASSAY - IC50): 1.39 µM
37 | CN(C)c1cccc(-c2cnc3cnc(-c4ccc(CO)cc4)cn23)c1 | > 9.58 µM | IC50 (PBLUC_HILL_SLOPE 3.53, PBLUC_R_SQUARED 0.408, read-out: LUCIFERASE INFECTION ASSAY - IC50): 6.91 µM
38 | Cc1c(Cl)cccc1-c1ccc(C(=O)NCc2ccco2)o1 | > 10.5 µM | IC50 [1]: > 10.5 µM
39 | N#Cc1ccc(OCc2nc3ccccc3n2C(F)F)cc1 | 4.42 µM | IC50 (HEPG2TOX_HILL_SLOPE 1.97, HEPG2TOX_R_SQUARED 0.844, PBLUC_HILL_SLOPE 169, PBLUC_R_SQUARED 0.414, read-out: LUCIFERASE INFECTION ASSAY - IC50): 4.36 µM
